Structures are written as SMILES.

Experimental findings from patent US20230165811A1, “METHOD FOR TREATING SYMPTOMS OF VIRAL INFECTIONS” (priority 2020, published 2023) are described below.

The subject of the experiment is Murine RAW 264.7 macrophages. The experiment is described as follows: LPS-induced TNF-α production in RAW 264.7 macrophages (ELISA). Conditions: 1 μM compound for 1 h, then 1 μg/mL LPS, vs vehicle (DMSO), FIG. 1. The class given is cell-based. The protocol:
Murine RAW 264.7 macrophages (ATCC TIB-71) were cultured in Dulbecco's Modified Eagle's Medium supplemented with fetal bovine serum (FBS) at a final concentration of 10%. The cells were maintained in T75 flasks in humidified atmosphere with 5% CO2 at 37° C. Subculturing was performed every 2-3 days with a cellscraper.
RAW 264.7 macrophages were seeded onto 24-well plate in 1 mL of complete growth medium and left overnight to enable cell attachment. Next day the cells were washed with phosphate buffered saline and the medium was replaced with 0.5 mL of low serum medium containing 1% FBS. After 3 h of incubation, the medium was replaced with serum-free medium (0.5 mL) and incubated for 1.5 h. Then, the cells were exposed to 1 μM (R,R′)-4′-methoxy-1-naphthylfenoterol (MNF) or vehicle (DMSO) for 1 h followed by stimulation with 1 μg/mL lipopolysaccharide (LPS, E. coli 055: B5). Media were collected at the following timepoints after LPS administration: 0 h, 2 h, 4 h, 6 h, 8 h, and 10 h.
TNF-α was measured in all collected media samples using Quantikine ELISA kit (MTA00B) from R&D Systems according to manufacturer's protocol.
Statistical analysis Obtained data were assessed and plotted using GraphPad Prism 8.4.2. Two-way analysis of variance (ANOVA) followed by Sidak post-hoc test was used to compare mean TNF-α concentration across treatments and exposure times.
For orientation: ELISA stands for enzyme-linked immunosorbent assay.

`COc1ccc(C[C@@H](C)NC[C@H](O)c2cc(O)cc(O)c2)c2ccccc12` [(R,R′) MNF, (R,R′)-4′-methoxy-1-naphthylfenoterol]: the “inhibition of LPS-induced production of TNF-α” value by setting is: (8 h timepoint after LPS) “significant inhibition”; (10 h timepoint after LPS) “significant inhibition”.
